Measured values reported in patent US11492385B2, “Long-acting co-agonists of the glucagon and GLP-1 receptors” (Merck Sharp & Dohme Corp., priority 2015, dated 2022).
Starred links: 1 amine or outer side, 2 acyl side, 3 side chain; linkers in the order of their positions; H or OH if unused. Non-standard residues stand in square brackets, D forms with d. Residues, ends and D or L forms follow the SMILES beside them. Groups on a side chain read outwards from the residue. *: point of attachment. Phe(4-CH2NH2) = NCc1ccc(C[C@H](N)C(=O)O)cc1; C18 diacid = O=C(O)CCCCCCCCCCCCCCCCC(=O)*; C16 diacid = O=C(O)CCCCCCCCCCCCCCC(=O)*; γGlu = O=C(O)[C@H](CCC(=O)[*:2])N[*:1]; Met(O2) = CS(=O)(=O)CC[C@H](N)C(=O)O; AEEA = NCCOCCOCC(=O)O; Aib = CC(C)(N)C(=O)O

What was measured:
human GCGR = molecular target: T1, human GCGR (Homo sapiens, UniProt P47871); assay: cAMP activity assay, cells expressing human GCGR; type: cell-based; settings: for EC50: cAMP production, cells expressing human GCGR, assay buffer with or without 20% human serum (not stated which), read-out: GCGR EC50 human; for hGCGR/hGLP1R (hTone): ratio of human GCGR EC50 to human GLP1R EC50
T1 construct: expressed in transfected cells; kept under Blasticidin and Hygromycin selection
Description: (§1) Activity of the peptides at the Glucagon receptor (GCGR) and GLP-1 receptor (GLP1R) was measured in a cAMP activity assay. Peptides were dissolved in 100% DMSO and serially diluted to generate 10 point titrations. The peptide solutions were then transferred into 384-well assay plates (150 nL/well). […] Production of cAMP was determined using […] kits (DiscoverX) following manufacturer protocol. The plates were incubated for overnight at room temperature in the dark. Luminescence was measured using an EnVision Multilabel plate reader (Perkin Elmer). Native GLP-1 and Glucagon (Bachem) are used as control peptides. EC50 values were calculated using uses a 4 parameter logistic fit based on the Levenberg-Marquardt algorithm.

human GLP1R = molecular target: T2, human GLP1R (Homo sapiens, UniProt P43220); assay: cAMP activity assay, cells expressing human GLP1R; type: cell-based; settings: cAMP production, assay buffer with or without 20% human serum (not stated which)
T2 construct: expressed in transfected cells; kept under Blasticidin and Hygromycin selection
Description: as §1

T1 sequence (P47871 26-477): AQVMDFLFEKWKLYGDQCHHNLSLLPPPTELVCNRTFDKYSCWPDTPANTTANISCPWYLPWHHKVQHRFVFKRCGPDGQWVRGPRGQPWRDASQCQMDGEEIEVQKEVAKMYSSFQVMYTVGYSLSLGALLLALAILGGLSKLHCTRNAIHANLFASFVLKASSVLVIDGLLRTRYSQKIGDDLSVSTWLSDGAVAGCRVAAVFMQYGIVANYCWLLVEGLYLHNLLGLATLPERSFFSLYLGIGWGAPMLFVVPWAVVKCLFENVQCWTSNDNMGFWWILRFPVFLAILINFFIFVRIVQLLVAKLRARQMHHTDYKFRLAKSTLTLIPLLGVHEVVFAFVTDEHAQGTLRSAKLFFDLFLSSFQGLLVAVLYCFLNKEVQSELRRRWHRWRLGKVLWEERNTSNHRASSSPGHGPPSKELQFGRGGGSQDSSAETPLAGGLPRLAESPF
T2 sequence (P43220 24-463): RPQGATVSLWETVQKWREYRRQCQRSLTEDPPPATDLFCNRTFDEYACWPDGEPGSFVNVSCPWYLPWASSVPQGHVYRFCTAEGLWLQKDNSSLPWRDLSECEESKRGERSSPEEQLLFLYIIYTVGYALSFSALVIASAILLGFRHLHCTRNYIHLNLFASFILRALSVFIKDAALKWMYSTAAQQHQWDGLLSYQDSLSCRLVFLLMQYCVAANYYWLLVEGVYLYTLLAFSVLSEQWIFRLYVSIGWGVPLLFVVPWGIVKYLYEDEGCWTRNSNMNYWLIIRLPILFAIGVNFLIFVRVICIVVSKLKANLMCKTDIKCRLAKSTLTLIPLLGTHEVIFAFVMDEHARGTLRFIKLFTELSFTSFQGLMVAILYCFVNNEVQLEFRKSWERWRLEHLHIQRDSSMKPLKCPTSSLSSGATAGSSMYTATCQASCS

Row | SMILES | EC50 (human GCGR) | hGCGR/hGLP1R (hTone) (human GCGR) | EC50 (human GLP1R)
1 | CC(C)C[C@H](NC(=O)[C@H](Cc1ccc(O)cc1)NC(=O)[C@H](CCCCN)NC(=O)[C@H](CO)NC(=O)[C@H](Cc1ccc(O)cc1)NC(=O)[C@H](CC(=O)O)NC(=O)[C@H](CO)NC(=O)[C@@H](NC(=O)[C@H](Cc1ccccc1)NC(=O)[C@@H](NC(=O)CNC(=O)[C@H](CCC(N)=O)NC(=O)[C@@H](CO)NC(=O)[C@@H](N)Cc1c[nH]cn1)[C@@H](C)O)[C@@H](C)O)C(=O)N[C@@H](CC(=O)O)C(=O)N[C@@H](C)C(=O)N[C@@H](CCCNC(=N)N)C(=O)N[C@@H](C)C(=O)N[C@@H](C)C(=O)N[C@@H](CCCCNC(=O)COCCOCCNC(=O)COCCOCCNC(=O)CC[C@H](NC(=O)CCCCCCCCCCCCCCC(=O)O)C(=O)O)C(=O)N[C@@H](CC(=O)O)C(=O)N[C@@H](Cc1ccccc1)C(=O)N[C@H](C(=O)N[C@@H](CCC(N)=O)C(=O)N[C@@H](Cc1c[nH]c2ccccc12)C(=O)N[C@@H](CC(C)C)C(=O)N[C@@H](CC(C)C)C(=O)N[C@@H](CC(=O)O)C(=O)N[C@H](C(N)=O)[C@@H](C)O)C(C)C [compound 2] (H-H[dS]QGTFTSDYSKYLDARAAK([AEEA-AEEA-γGlu-C16 diacid])DFVQWLLDT-NH2; N-terminus assumed) | 0.03 nM | 0.11 | 0.274 nM
2 | CC(C)C[C@H](NC(=O)[C@H](Cc1ccc(O)cc1)NC(=O)[C@H](CCCCN)NC(=O)[C@H](CO)NC(=O)[C@H](Cc1ccc(O)cc1)NC(=O)[C@H](CC(=O)O)NC(=O)[C@H](CO)NC(=O)[C@@H](NC(=O)[C@H](Cc1ccccc1)NC(=O)[C@@H](NC(=O)CNC(=O)[C@H](CCC(N)=O)NC(=O)[C@@H](CO)NC(=O)[C@@H](N)Cc1c[nH]cn1)[C@@H](C)O)[C@@H](C)O)C(=O)N[C@@H](CC(=O)O)C(=O)N[C@@H](C)C(=O)N[C@@H](CCCNC(=N)N)C(=O)N[C@@H](C)C(=O)N[C@@H](C)C(=O)N[C@@H](CCC(N)=O)C(=O)N[C@@H](CCCCNC(=O)COCCOCCNC(=O)COCCOCCNC(=O)CC[C@H](NC(=O)CCCCCCCCCCCCCCC(=O)O)C(=O)O)C(=O)N[C@@H](Cc1ccccc1)C(=O)N[C@H](C(=O)N[C@@H](CCC(N)=O)C(=O)N[C@@H](Cc1c[nH]c2ccccc12)C(=O)N[C@@H](CC(C)C)C(=O)N[C@@H](CC(C)C)C(=O)N[C@@H](CC(=O)O)C(=O)N[C@H](C(N)=O)[C@@H](C)O)C(C)C [compound 3] (H-H[dS]QGTFTSDYSKYLDARAAQK([AEEA-AEEA-γGlu-C16 diacid])FVQWLLDT-NH2) | 0.05 nM | 0.23 | 0.2 nM
3 | CC(C)C[C@H](NC(=O)[C@H](Cc1ccc(O)cc1)NC(=O)[C@H](CCCCN)NC(=O)[C@H](CO)NC(=O)[C@H](Cc1ccc(CNC(=O)COCCOCCNC(=O)COCCOCCNC(=O)CC[C@H](NC(=O)CCCCCCCCCCCCCCC(=O)O)C(=O)O)cc1)NC(=O)[C@H](CC(=O)O)NC(=O)[C@H](CO)NC(=O)[C@@H](NC(=O)[C@H](Cc1ccccc1)NC(=O)[C@@H](NC(=O)CNC(=O)[C@H](CCC(N)=O)NC(=O)C(C)(C)NC(=O)[C@@H](N)Cc1c[nH]cn1)[C@@H](C)O)[C@@H](C)O)C(=O)N[C@@H](CC(=O)O)C(=O)N[C@@H](CCC(=O)O)C(=O)N[C@@H](CCCNC(=N)N)C(=O)N[C@@H](C)C(=O)N[C@@H](C)C(=O)N[C@@H](CCC(N)=O)C(=O)N[C@@H](CC(=O)O)C(=O)N[C@@H](Cc1ccccc1)C(=O)N[C@H](C(=O)N[C@@H](CCC(N)=O)C(=O)N[C@@H](Cc1c[nH]c2ccccc12)C(=O)N[C@@H](CC(C)C)C(=O)N[C@@H](CC(C)C)C(=O)N[C@@H](CCCCN)C(=O)N[C@H](C(N)=O)[C@@H](C)O)C(C)C [compound 8] (H-H[Aib]QGTFTSD[Phe(4-CH2NH2)]([AEEA-AEEA-γGlu-C16 diacid])SKYLDERAAQDFVQWLLKT-NH2) | 0.42 nM | 15.26 | 0.03 nM
4 | CC(C)C[C@H](NC(=O)[C@H](Cc1ccc(O)cc1)NC(=O)[C@H](CCCCN)NC(=O)[C@H](CO)NC(=O)[C@H](CCCCNC(=O)CC[C@H](NC(=O)CC[C@H](NC(=O)CCCCCCCCCCCCCCC(=O)O)C(=O)O)C(=O)O)NC(=O)[C@H](CC(=O)O)NC(=O)[C@H](CO)NC(=O)[C@@H](NC(=O)[C@H](Cc1ccccc1)NC(=O)[C@@H](NC(=O)CNC(=O)[C@H](CCC(N)=O)NC(=O)[C@@H](CO)NC(=O)[C@@H](N)Cc1c[nH]cn1)[C@@H](C)O)[C@@H](C)O)C(=O)N[C@@H](CC(=O)O)C(=O)N[C@@H](CCC(=O)O)C(=O)N[C@@H](CCCNC(=N)N)C(=O)N[C@@H](C)C(=O)N[C@@H](C)C(=O)N[C@@H](CCC(N)=O)C(=O)N[C@@H](CC(=O)O)C(=O)N[C@@H](Cc1ccccc1)C(=O)N[C@H](C(=O)N[C@@H](CCC(N)=O)C(=O)N[C@@H](Cc1c[nH]c2ccccc12)C(=O)N[C@@H](CC(C)C)C(=O)N[C@@H](CC(C)C)C(=O)N[C@@H](CCCCN)C(=O)N[C@H](C(N)=O)[C@@H](C)O)C(C)C [compound 9] | 1.98 nM | 3.22 | 0.67 nM

Second part, the compound after the results:

Row | EC50 (human GCGR) | hGCGR/hGLP1R (hTone) (human GCGR) | EC50 (human GLP1R) | SMILES
5 | 1.42 nM | 5.36 | 0.27 nM | CC(C)C[C@H](NC(=O)[C@H](Cc1c[nH]c2ccccc12)NC(=O)[C@H](CCC(N)=O)NC(=O)[C@@H](NC(=O)[C@H](Cc1ccccc1)NC(=O)[C@H](CC(=O)O)NC(=O)[C@H](CCC(N)=O)NC(=O)[C@H](C)NC(=O)[C@H](C)NC(=O)[C@H](CCCNC(=N)N)NC(=O)C(C)(C)NC(=O)[C@H](CC(=O)O)NC(=O)[C@H](CC(C)C)NC(=O)[C@H](Cc1ccc(O)cc1)NC(=O)[C@H](CCCCN)NC(=O)[C@H](CO)NC(=O)[C@H](CCCCNC(=O)COCCOCCNC(=O)COCCOCCNC(=O)CC[C@H](NC(=O)CCCCCCCCCCCCCCCCC(=O)O)C(=O)O)NC(=O)[C@H](CC(=O)O)NC(=O)[C@H](CO)NC(=O)[C@@H](NC(=O)[C@H](Cc1ccccc1)NC(=O)[C@@H](NC(=O)CNC(=O)[C@H](CCC(N)=O)NC(=O)C(C)(C)NC(=O)[C@@H](N)Cc1c[nH]cn1)[C@@H](C)O)[C@@H](C)O)C(C)C)C(=O)N[C@@H](CCS(C)(=O)=O)C(=O)N[C@@H](CC(=O)O)C(=O)N[C@H](C(N)=O)[C@@H](C)O [compound 4] (H-H[Aib]QGTFTSDK([AEEA-AEEA-γGlu-C18 diacid])SKYLD[Aib]RAAQDFVQWL[Met(O2)]DT-NH2; N-terminus assumed)
6 | 0.97 nM | 8.80 | 0.11 nM | CC(C)C[C@H](NC(=O)[C@H](Cc1c[nH]c2ccccc12)NC(=O)[C@H](CCC(N)=O)NC(=O)[C@@H](NC(=O)[C@H](Cc1ccccc1)NC(=O)[C@H](CC(=O)O)NC(=O)[C@H](CCC(N)=O)NC(=O)[C@H](C)NC(=O)[C@H](C)NC(=O)[C@H](CCCNC(=N)N)NC(=O)C(C)(C)NC(=O)[C@H](CC(=O)O)NC(=O)[C@H](CC(C)C)NC(=O)[C@H](Cc1ccc(O)cc1)NC(=O)[C@H](CCCCNC(=O)COCCOCCNC(=O)COCCOCCNC(=O)CC[C@H](NC(=O)CCCCCCCCCCCCCCCCC(=O)O)C(=O)O)NC(=O)[C@H](CO)NC(=O)[C@H](Cc1ccc(O)cc1)NC(=O)[C@H](CC(=O)O)NC(=O)[C@H](CO)NC(=O)[C@@H](NC(=O)[C@H](Cc1ccccc1)NC(=O)[C@@H](NC(=O)CNC(=O)[C@H](CCC(N)=O)NC(=O)C(C)(C)NC(=O)[C@@H](N)Cc1c[nH]cn1)[C@@H](C)O)[C@@H](C)O)C(C)C)C(=O)N[C@@H](CCS(C)(=O)=O)C(=O)N[C@@H](CC(=O)O)C(=O)N[C@H](C(N)=O)[C@@H](C)O [compound 5] (H-H[Aib]QGTFTSDYSK([AEEA-AEEA-γGlu-C18 diacid])YLD[Aib]RAAQDFVQWL[Met(O2)]DT-NH2)
7 | 1.7 nM | 1.24 | 1.37 nM | CC(C)C[C@H](NC(=O)[C@H](Cc1ccc(O)cc1)NC(=O)[C@H](CCCCN)NC(=O)[C@H](CO)NC(=O)[C@H](CCCCNC(=O)COCCOCCNC(=O)COCCOCCNC(=O)CC[C@H](NC(=O)CCCCCCCCCCCCCCCCC(=O)O)C(=O)O)NC(=O)[C@H](CC(=O)O)NC(=O)[C@H](CO)NC(=O)[C@@H](NC(=O)[C@H](Cc1ccccc1)NC(=O)[C@@H](NC(=O)CNC(=O)[C@H](CCC(N)=O)NC(=O)[C@@H](CO)NC(=O)[C@@H](N)Cc1c[nH]cn1)[C@@H](C)O)[C@@H](C)O)C(=O)N[C@@H](CC(=O)O)C(=O)N[C@@H](C)C(=O)N[C@@H](CCCNC(=N)N)C(=O)N[C@@H](C)C(=O)N[C@@H](C)C(=O)N[C@@H](CCC(N)=O)C(=O)N[C@@H](CC(=O)O)C(=O)N[C@@H](Cc1ccccc1)C(=O)N[C@H](C(=O)N[C@@H](CCC(N)=O)C(=O)N[C@@H](Cc1c[nH]c2ccccc12)C(=O)N[C@@H](CC(C)C)C(=O)N[C@@H](CC(C)C)C(=O)N[C@@H](CC(=O)O)C(=O)N[C@H](C(N)=O)[C@@H](C)O)C(C)C [compound 6] (H-H[dS]QGTFTSDK([AEEA-AEEA-γGlu-C18 diacid])SKYLDARAAQDFVQWLLDT-NH2)
